The experiment deals with T1, catalytic domain of human Bub1 (amino acids 704-1085) (Homo sapiens, UniProt O43683).
T1 construct: catalytic domain of human Bub1 (amino acids 704-1085); His6 (N); made in house; host or cells: Hi5 insect cells
The experiment in a line: Bub1 kinase assay (TR-FRET). The experiment is classed as biochemical. To be noted: TR-FRET; ATP 10 μM, peptide substrate 1 μM; 60 min at 22° C.; average or median if tested more than once; read-out: Inhibition of Bub1 kinase IC50. In outline: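 Human Bub1 catalytic domain (704-1085, His6-tagged, Hi5-expressed, ~200 ng/mL) preincubated with compound 15 min at 22 °C, then reacted 60 min at 22 °C with 10 μM ATP and 1 μM biotinylated peptide substrate, pH 7.5. EDTA stop; TR-FRET 665/620 ratio; IC50 from 4-parameter fit, 11 concentrations in duplicate.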
In general terms: Time-resolved FRET reads energy transfer from a long-lived donor to a nearby acceptor.

A word on the IC50: it is the concentration needed to halve the response being measured.

Structures are written as SMILES.

T1 sequence (O43683 704-1085): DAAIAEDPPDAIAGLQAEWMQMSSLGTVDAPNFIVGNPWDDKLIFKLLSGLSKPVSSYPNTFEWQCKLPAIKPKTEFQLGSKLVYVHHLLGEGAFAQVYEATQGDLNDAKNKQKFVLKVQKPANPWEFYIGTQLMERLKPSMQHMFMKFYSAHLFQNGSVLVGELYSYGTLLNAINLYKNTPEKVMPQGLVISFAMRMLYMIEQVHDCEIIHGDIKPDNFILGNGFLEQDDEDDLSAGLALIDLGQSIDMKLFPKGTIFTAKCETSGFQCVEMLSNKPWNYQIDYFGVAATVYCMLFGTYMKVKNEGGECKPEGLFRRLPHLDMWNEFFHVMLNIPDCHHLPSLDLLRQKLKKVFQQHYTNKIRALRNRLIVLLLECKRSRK

For `CC(C)S(=O)(=O)N1CC(=O)c2c([nH]c(-c3ccnc(NC(=O)[C@@H]4C[C@@H]4F)c3)c2Nc2ccccc2)C1` [Example 214, (1S,2S)-2-Fluoro-N-4-[4-oxo-3-(phenylamino)-6-(propan-2-ylsulfonyl)-4,5,6,7-tetrahydro-1H-pyrrolo[2,3-c]pyridin-2-yl]pyridin-2-ylcyclopropanecarboxamide], the half-inhibitory concentration (IC50) was 3 nM.
The value for `COc1cnccc1-c1[nH]c2c(c1Nc1ccccc1)C(=O)CN(C(=O)C1CC1)C2` [Example 108, 6-(Cyclopropylcarbonyl)-2-(3-methoxypyridin-4-yl)-3-(phenylamino)-1,5,6,7-tetrahydro-4H-pyrrolo[2,3-c]pyridin-4-one] was 8 nM.
The value for `COC(=O)N1CC(=O)c2c([nH]c(-c3ccnc(NC(=O)[C@@H]4C[C@@H]4F)c3)c2Nc2ccccc2)C1` (relative stereo) [Example 139, Methyl 3-anilino-2-[2-({[rel-(1S,2S)-2-fluorocyclopropyl]carbonyl}amino)pyridin-4-yl]-4-oxo-1,4,5,7-tetrahydro-6H-pyrrolo[2,3-c]pyridine-6-carboxylate] was 7 nM; that for `O=C1CN(C(=O)c2ccccn2)Cc2[nH]c(-c3ccncc3)c(Nc3ccccc3)c21` [Example 61, 3-(phenylamino)-2-(pyridin-4-yl)-6-(pyridin-2-ylcarbonyl)-1,5,6,7-tetrahydro-4H-pyrrolo[2,3-c]pyridin-4-one] was 40 nM; that for `COc1cc(C(=O)Nc2cc(-c3[nH]c4c(c3Nc3ccccc3)C(=O)CN(C(=O)OC(C)(C)C)C4)ccn2)ccc1F` [Example 253, tert-butyl 2-2-[(4-fluoro-3-methoxybenzoyl)amino]pyridin-4-yl-4-oxo-3-(phenylamino)-1,4,5,7-tetrahydro-6H-pyrrolo[2,3-c]pyridine-6-carboxylate] was 42 nM.
The value for `CC(C)(C)NC(=O)N1CC(=O)c2c([nH]c(-c3ccncc3)c2Nc2ccccc2)C1` [Example 85, N-tert-Butyl-4-oxo-3-(phenylamino)-2-(pyridin-4-yl)-1,4,5,7-tetrahydro-6H-pyrrolo[2,3-c]pyridine-6-carboxamide] was 13 nM.
Regarding `CNC(=O)N1CC(=O)c2c([nH]c(-c3ccncc3OCC(F)(F)F)c2Nc2ccccc2)C1` [Example 243, N-Methyl-44-oxo-3-(phenylamino)-2-[3-(2,2,2-trifluoroethoxy)pyridin-4-yl]-1,4,5,7-tetrahydro-6H-pyrrolo[2,3-c]pyridine-6-carboxamide], the IC50 came out at 55 nM.
The value for `CCC(=O)Nc1cc(-c2[nH]c3c(c2Nc2ccccc2)C(=O)COC3)ccn1` [Example 44, N-{4-[4-Oxo-3-(phenylamino)-1,4,5,7-tetrahydropyrano[3,4-b]pyrrol-2-yl]pyridin-2-yl}propanamide] was 50 nM; that for `O=C1CN(C(=O)OCCF)Cc2[nH]c(-c3ccncc3)c(Nc3ccccc3)c21` [Example 79, 2-Fluoroethyl 4-oxo-3-(phenylamino)-2-(pyridin-4-yl)-1,4,5,7-tetrahydro-6H-pyrrolo[2,3-c]pyridine-6-carboxylate] was 8 nM; that for `CSCCC(=O)N1CC(=O)c2c([nH]c(-c3ccnc(NC(C)=O)c3)c2Nc2ccccc2)C1` [Example 192] was 30 nM.
The value for `CC(=O)Nc1cc(-c2[nH]c3c(c2Nc2ccccc2)C(=O)CN(C(=O)CC(C)(C)C(F)(F)F)C3)ccn1` [Example 219, N-{4-[3-Anilino-4-oxo-6-(4,4,4-trifluoro-3,3-dimethylbutanoyl)-4,5,6,7-tetrahydro-1H-pyrrolo[2,3-c]pyridin-2-yl]pyridin-2-yl}acetamide] was 22 nM.
The value for `CC(=O)Nc1cc(-c2[nH]c3c(c2Nc2ccccc2)C(=O)CN(C(=O)SC(C)(C)C)C3)ccn1` [Example 301, S-tert-butyl 2-(2-acetamidopyridin-4-yl)-3-anilino-4-oxo-1,4,5,7-tetrahydro-6H-pyrrolo[2,3-c]pyridine-6-carbothioate] was 33 nM; that for `CC(C)S(=O)(=O)N1CC(=O)c2c([nH]c(-c3ccncc3OCC(F)F)c2Nc2ccccc2)C1` [Example 241, 2-[3-(2,2-Difluoroethoxy)pyridin-4-yl]-3-(phenylamino)-6-(propan-2-ylsulfonyl)-1,5,6,7-tetrahydro-4H-pyrrolo[2,3-c]pyridin-4-one] was 13 nM.
In the case of `CN(C)S(=O)(=O)N1CC(=O)c2c([nH]c(-c3ccncc3OCC3CC3)c2Nc2ccccc2)C1` [Example 282, 2-[3-(Cyclopropylmethoxy)pyridin-4-yl]-N,N-dimethyl-4-oxo-3-(phenylamino)-1 4,5,7-tetrahydro-6H-pyrrolo[2,3-c]pyridine-6-sulfonamide], the IC50 worked out at 12 nM.
The value for `CNC(=O)N1CC(=O)c2c([nH]c(-c3ccnc(NC(=O)[C@@H]4C[C@@H]4F)c3)c2Nc2ccccc2)C1` [Example 206, 2-[2-([(1S,2S)-2-Fluorocyclopropyl]carbonylamino)pyridin-4-yl]-N-methyl-4-oxo-3-(phenylamino)-1,4,5,7-tetrahydro-6H-pyrrolo[2,3-c]pyridine-6-carboxamide] was 4 nM.
The result for `O=C1CNCc2[nH]c(-c3ccnc(NC(=O)C4(F)CC4)c3)c(Nc3ccccc3)c21` [Example 132, N-[4-(3-anilino-4-oxo-4,5,6,7-tetrahydro-1H-pyrrolo[2,3-c]pyridin-2-yl)pyridin-2-yl]-1-fluorocyclopropanecarboxamide] reads 299 nM; that for `O=C(Nc1cc(-c2[nH]c3c(c2Nc2ccccc2)C(=O)CNC3)ccn1)c1cnn[nH]1` [Example 275, N-4-[4-Oxo-3-(phenylamino)-4,5,6,7-tetrahydro-1H-pyrrolo[2,3-c]pyridin-2-yl]pyridin-2-yl-1H-1,2,3-triazole-5-carboxamide], 113 nM.
The result for `CC(=O)Nc1cc(-c2[nH]c3c(c2Nc2ccccc2)C(=O)CN(C(=O)c2cscn2)C3)ccn1` [Example 194, N-{4-[3-Anilino-4-oxo-6-(1,3-thiazol-4-ylcarbonyl)-4,5,6,7-tetrahydro-1H-pyrrolo[2,3-c]pyridin-2-yl]pyridin-2-yl}acetamide] reads 46 nM; that for `Cc1nccc(-c2[nH]c3c(c2Nc2ccccc2)C(=O)CN(S(C)(=O)=O)C3)n1` [Example 29, 2-(2-Methylpyrimidin-4-yl)-6-(methylsulfonyl)-3-(phenylamino)-1,5,6,7-tetrahydro-4H-pyrrolo[2,3-c]pyridin-4-one], 24 nM; that for `COC(=O)N1CC(=O)c2c([nH]c(-c3ccncc3OCC(F)F)c2Nc2ccccc2)C1` [Example 236, Methyl 2-[3-(2,2-difluoroethoxy)pyridin-4-yl]-4-oxo-3-(phenylamino)-1,4,5,7-tetrahydro-6H-pyrrolo[2,3-c]pyridine-6-carboxylate], 16 nM.
In the case of `CNS(=O)(=O)N1CC(=O)c2c([nH]c(-c3ccnc(NC(C)=O)c3)c2Nc2ccc(C)cc2)C1` [Example 322], the IC50 came out at 41 nM.
On to `O=C1COCc2[nH]c(-c3ccncc3F)c(Nc3ccccc3)c21` [Example 33, 2-(3-Fluoropyridin-4-yl)-3-(phenylamino)-1,7-dihydropyrano[3,4-b]pyrrol-4(5H)-one], for which the IC50 worked out at 17 nM.
The value for `CC(C)(C)OC(=O)N1CC(=O)c2c([nH]c(-c3ccncc3OCC(F)(F)F)c2Nc2ccccc2)C1` [Example 221, tert-Butyl 3-anilino-4-oxo-2-[3-(2,2,2-trifluoroethoxy)pyridin-4-yl]-1,4,5,7-tetrahydro-6H-pyrrolo[2,3-c]pyridine-6-carboxylate] was 104 nM.
Consider `O=C1CNCc2[nH]c(-c3ccncc3OCC(F)(F)F)c(Nc3ccccc3)c21` [Example 225, 3-Anilino-2-[3-(2,2,2-trifluoroethoxy)pyridin-4-yl]-1,5,6,7-tetrahydro-4H-pyrrolo[2,3-c]pyridin-4-one], for which the IC50 turned out to be 1020 nM.
The value for `Cc1nccc(-c2[nH]c3c(c2Nc2ccccc2)C(=O)CN(C(=O)OC(C)(C)C)C3)n1` [Example 12, tert-Butyl 2-(2-methylpyrimidin-4-yl)-4-oxo-3-(phenylamino)-1,4,5,7-tetrahydro-6H-pyrrolo[2,3-c]pyridine-6-carboxylate] was 102 nM.
The result for `CSCC(=O)Nc1cc(-c2[nH]c3c(c2Nc2ccccc2)C(=O)COC3)ccn1` [Example 46, 2-(Methylsulfanyl)-N-{4-[4-oxo-3-(phenylamino)-1,4,5,7-tetrahydropyrano[3,4-b]pyrrol-2-yl]pyridin-2-yl}acetamide] reads 93 nM.
Consider `COCCOc1cnccc1-c1[nH]c2c(c1Nc1ccccc1)C(=O)CNC2` [Example 226, 3-anilino-2-[3-(2-methoxyethoxy)pyridin-4-yl]-1,5,6,7-tetrahydro-4H-pyrrolo[2,3-c]pyridin-4-one], for which the half-inhibitory concentration (IC50) was 72 nM.
The result for `CC(C)(C)OC(=O)N1CC(=O)c2c([nH]c(-c3ccnc(NC(=O)C(C)(C)F)c3)c2Nc2ccccc2)C1` [Example 119, tert-Butyl 2-{2-[(2-fluoro-2-methylpropanoyl)amino]pyridin-4-yl}-4-oxo-3-(phenylamino)-1,4,5,7-tetrahydro-6H-pyrrolo[2,3-c]pyridine-6-carboxylate] reads 42 nM; that for `CC(=O)Nc1cc(-c2[nH]c3c(c2Nc2ccccc2)C(=O)CN(C(=O)OC(C)C)C3)ccn1` [Example 185, Isopropyl 2-(2-acetamidopyridin-4-yl)-3-anilino-4-oxo-1,4,5,7-tetrahydro-6H-pyrrolo[2,3-c]pyridine-6-carboxylate], 14 nM.
The value for `COc1ccc(C(=O)Nc2cc(-c3c(Nc4ccccc4)c4c(n3C)CN(C(=O)OC(C)(C)C)CC4=O)ccn2)cc1F` [Example 286, tert-Butyl 2-2-[(3-fluoro-4-methoxybenzoyl)amino]pyridin-4-yl-1-methyl-4-oxo-3-(phenylamino)-1,4,5,7-tetrahydro-6H-pyrrolo[2,3-c]pyridine-6-carboxylate] was 1050 nM.

Source of the values: patent publication US20200216439A1, “HETERO-1,5,6,7-TETRAHYDRO-4H-INDOL-4-ONES” (BAYER PHARMA AKTIENGESELLSCHAFT, priority 2015, published 2020).
